Results taken from publication PMC7321065, “Discovery of New Schiff Bases Tethered Pyrazole Moiety: Design, Synthesis, Biological Evaluation, and Molecular Docking Study as Dual Targeting DHFR/DNA Gyrase Inhibitors with Immunomodulatory Activity” (Molecules, 2020).
Converted amounts (≈) assume the structure as drawn. Like-named read-outs stand apart in the source and are kept apart here.

Legend:
Bacillus subtilis [1] = assay: Inhibition zone, agar plate diffusion; format: cell-based; details: read-out: Inhibition zone (IZ)
Experimental: (§1) Antimicrobial activities of the newly formed Schiff bases (6a–d, 7a–d, 8a–d, and 9a–d) and reference drugs were evaluated against three Gram-positive, three Gram-negative, and two fungi strain at Al-Azhar University, Cairo, Egypt. The inhibition zones (IZ, in mm ± standard deviation) and the minimal inhibitory concentration (MIC) (μg/mL) were determined by the conventional paper disk diffusion method.
(§2) In Vitro Antimicrobial Activities
(§3) The antimicrobial activities inhibition zone (IZ, mm±standard deviation) of pyrazole Schiff bases ( 6a-d , 7a-d, 8a-d and 9a-d ) was measurement according to the agar plate diffusion method. Briefly, 100 µl of the […]
(§4) […] of each sample (at 0.5 mg/mL) was added to each well (10 mm diameter holes cut in the agar gel). The plates were incubated for 24 h at 37 °C (for bacteria and yeast) and for 72 h at 27 °C (for filamentous fungi), each test was repeated three times. After incubation, the microorganism's growth was observed. […]
(§5) drugs while Amphotericin B was used as standard antifungal drug. The resulting inhibition zone diameters were measured in millimeters and used as criterion for the antimicrobial activity. Solvent controls (DMSO) were included in every experiment as negative controls. DMSO was used for dissolving […]
(§6) the tested microorganisms. […]

Enterococcus faecalis [2] = assay: Inhibition zone, agar plate diffusion; format: cell-based; details: read-out: Inhibition zone (IZ)
Experimental: as §1, §2, §3, §4, §5, §6

Escherichia coli [3] = assay: Inhibition zone, agar plate diffusion; format: cell-based; details: read-out: Inhibition zone (IZ)
Experimental: as §1, §2, §3, §4, §5, §6

Pseudomonas aeruginosa [4] = assay: Inhibition zone, agar plate diffusion; format: cell-based; details: read-out: Inhibition zone (IZ)
Experimental: as §1, §2, §3, §4, §5, §6

Candida albicans [5] = assay: Inhibition zone, agar plate diffusion; format: cell-based; details: read-out: Inhibition zone (IZ)
Experimental: as §1, §2, §3, §4, §5, §6
(§7) Bacteria were grown on nutrient agar medium, while fungi and yeast were grown on Sabouraud agar medium. […]

Fusarium oxysporum [6] = assay: Inhibition zone, agar plate diffusion; format: cell-based; details: read-out: Inhibition zone (IZ)
Experimental: as §1, §2, §3, §4, §5, §6, §7

Salmonella typhi [7] = assay: Inhibition zone, agar plate diffusion; format: cell-based; details: Salmonella enterica, St, mm ± standard deviation, sample at 0.5 mg/mL, read-out: Inhibition zone (IZ)
Experimental: as §1, §2, §3, §4, §5, §6, §7

Staphylococcus aureus [8] = assay: Inhibition zone, agar plate diffusion; format: cell-based; details: read-out: Inhibition zone (IZ)
Experimental: as §1, §2, §3, §4, §5, §6, §7

Bacillus subtilis [9] = assay: MIC/MBC, paper disk diffusion; format: cell-based
Experimental: as §1
(§8) In Vitro Antimicrobial Activities […]
(§9) DMSO was used for dissolving […]
(§10) the tested microorganisms.
(§11) The minimum inhibitory concentration (MIC), the minimum bactericidal concentration (MBC, µg/ml) and […]
(§12) and 9b) were determined by the conventional technique termed paper disk diffusion, by applying paper […]
(§13) Bacteria were grown on nutrient agar medium, while fungi and yeast were grown on Sabouraud agar medium. The purified streptomycin was dissolved in […]
(§14) inoculated with test organism. Growth inhibition was examined after 24 hr. from incubation at 37 °C for bacteria and after 72 hr. incubation at 27 °C for fungi and yeast. Each test was repeated three times. MIC was expressed as the lowest concentration inhibiting test organism’s growth. […]

Enterococcus faecalis [10] = assay: MIC/MBC, paper disk diffusion; format: cell-based
Experimental: as §1, §8, §9, §10, §11, §12, §13, §14

Escherichia coli [11] = assay: MIC/MBC, paper disk diffusion; format: cell-based; details: Escherichia coli
Experimental: as §1, §8, §9, §10, §11, §12, §13, §14

Pseudomonas aeruginosa [12] = assay: MIC/MBC, paper disk diffusion; format: cell-based; details: Pseudomonas aeruginosa
Experimental: as §1, §8, §9, §10, §11, §12, §13, §14

Salmonella typhi [13] = assay: MIC/MBC, paper disk diffusion; format: cell-based; details: Salmonella enterica, S. typhi
Experimental: as §1, §8, §9, §10, §11, §12, §13, §14

Staphylococcus aureus [14] = assay: MIC/MBC, paper disk diffusion; format: cell-based; details: Staphylococcus aureus
Experimental: as §1, §8, §9, §10, §11, §12, §13, §14

Candida albicans [15] = assay: MIC/MFC, paper disk diffusion; format: cell-based; details: Candida albicans
Experimental: as §1, §8, §9, §10, §11, §12, §13, §14

Fusarium oxysporum [16] = assay: MIC/MFC, paper disk diffusion; format: cell-based; details: Fusarium oxysporum
Experimental: as §1, §8, §9, §10, §11, §12, §13, §14

[17] = tested on: hepatocellular carcinoma cell line (HepG2); assay: Antiproliferative activity, MTT assay; format: cell-based, human; details: Homo sapiens, HepG2, 48 h, read-out: IC50 HepG-2
Experimental: (§15) 3-[4, 5-Dimethyl-2-thiazolyl)-2, 5-diphenyl-2 H-tetrazolium bromide (MTT) protocol is based on the cleavage of the tetrazolium salt by mitochondrial dehydrogenases in viable cells. Cells were dispensed in a 96 well sterile microplate (5 x 10^4 cells/well), and incubated at 37 °C with series of different concentrations, in DMSO, of each tested compound or Doxorubicin ® (positive control) for 48 h in a serum free medium prior to the MTT assay. After incubation, media were carefully removed, 40 µL of MTT (2.5 mg/mL) were added to each well and then incubated for an additional 4 h. The purple formazan dye crystals were solubilized by the addition of 200 µL of DMSO. The absorbance was measured at 590 nm using a SpectraMax® Paradigm® Multi-Mode microplate reader. The relative cell viability was expressed as the mean percentage of viable cells compared to the untreated control cells.
(§16) All experiments were conducted in triplicate and repeated in three different days. All the values were represented as mean ± SD. IC 50s were determined by probit analysis using SPSS software program (SPSS

[18] = tested on: mammary gland breast cancer cell line (MCF-7); assay: Antiproliferative activity, MTT assay; format: cell-based, human; details: Homo sapiens, MCF7, 48 h, read-out: IC50 MCF-7
Experimental: as §15, §16

[19] = tested on: S. aureus ATCC 43300 (MRSA); assay: Inhibition zone against MDRB, agar plate diffusion; format: cell-based
S. aureus ATCC 33591 [20] = assay: Inhibition zone against MDRB, agar plate diffusion; format: cell-based
E. coli ATCC BAA-196 [21] = assay: Inhibition zone against MDRB, agar plate diffusion; format: cell-based
[22] = tested on: P. aeruginosa ATCC BAA-2111; assay: Inhibition zone against MDRB, agar plate diffusion; format: cell-based
E. coli ATCC BAA-196 [23] = assay: MIC/MBC against MDRB, paper disk diffusion; format: cell-based; details: Escherichia coli, ATCCBAA196
Text: (§17) The inhibition zone (IZ, mm±standard deviation) of pyrazole Schiff bases ( 6b, 7b, 7c, 8a, 8d and 9b) was
(§18) measurement according to the agar plate diffusion method against a panel of multidrug-resistant bacteria
(MDRB). […]

[24] = tested on: P. aeruginosa ATCC BAA-2111; assay: MIC/MBC against MDRB, paper disk diffusion; format: cell-based; details: Pseudomonas aeruginosa, ATCCBAA2111
Text: as §17, §18
(MDRB). […]

S. aureus ATCC 33591 [25] = assay: MIC/MBC against MDRB, paper disk diffusion; format: cell-based; details: Staphylococcus aureus, ATCC33591
Text: as §17, §18
(MDRB). […]

[26] = tested on: S. aureus ATCC 43300 (MRSA); assay: MIC/MBC against MDRB, paper disk diffusion; format: cell-based; details: Staphylococcus aureus
Text: as §17, §18
(MDRB). […]

COc1ccc(Nc2n[nH]c(N=Cc3ccc(N4CCCCC4)cc3)c2C(=O)Nc2ccc(Cl)cc2)cc1 [8d, N-(p-Chlorophenyl)-3-(p-methoxyphenylamino)-5-(4-(piperidin-1-yl)benzylideneamino)-1H-pyrazole-4-carboxamide]
zone of inhibition at 500 µg/mL (Bacillus subtilis [1]): 24 ± 0.5 mm | zone of inhibition at 500 µg/mL (Enterococcus faecalis [2]): 23 ± 0.65 mm | zone of inhibition at 500 µg/mL (Escherichia coli [3]): 26 ± 0.11 mm | zone of inhibition at 500 µg/mL (Pseudomonas aeruginosa [4]): 21 ± 0.2 mm | zone of inhibition at 500 µg/mL (Candida albicans [5]): 25 ± 0.33 mm | zone of inhibition at 500 µg/mL (Fusarium oxysporum [6]): 21 ± 0.16 mm | zone of inhibition at 500 µg/mL (Salmonella typhi [7]): 23 ± 0.65 mm | zone of inhibition at 500 µg/mL (Staphylococcus aureus [8]): 25 ± 0.77 mm | Fold more potent than Tetracycline (MIC) (Bacillus subtilis [9]; B. subtilis): 8 fold | MIC (Bacillus subtilis [9]; Bacillus subtilis): 3.9 µg/mL (≈ 7.37 µM) | MBC (Bacillus subtilis [9]; Bacillus subtilis, B. subtilis): 6.63 µg/mL (≈ 12.5 µM) | MIC (Enterococcus faecalis [10]): 15.6 µg/mL (≈ 29.5 µM) | MBC (Enterococcus faecalis [10]; E. faecalis): 31.2 µg/mL (≈ 59.1 µM) | MIC (Escherichia coli [11]): 7.81 µg/mL (≈ 14.8 µM) | MBC (Escherichia coli [11]; E. coli): 15.6 µg/mL (≈ 29.5 µM) | MIC (Pseudomonas aeruginosa [12]): 27.8 µg/mL (≈ 52.5 µM) | MBC (Pseudomonas aeruginosa [12]; P. aeruginosa): 55.5 µg/mL (≈ 105 µM) | MIC (Salmonella typhi [13]): 18.5 µg/mL (≈ 35 µM) | MBC (Salmonella typhi [13]; read-out: MBC): 36.5 µg/mL (≈ 69 µM) | MIC (Staphylococcus aureus [14]): 7.81 µg/mL (≈ 14.8 µM) | MBC (Staphylococcus aureus [14]; S. aureus): 15.6 µg/mL (≈ 29.5 µM) | MFC (Candida albicans [15]): 17.6 µg/mL (≈ 33.2 µM) | MIC (Candida albicans [15]): 9.25 µg/mL (≈ 17.5 µM) | MFC (Fusarium oxysporum [16]): 56.2 µg/mL (≈ 106 µM) | MIC (Fusarium oxysporum [16]): 31.2 µg/mL (≈ 59.1 µM) | IC50 [17]: 2.63 ± 0.44 µM | IC50 [18]: 3.69 ± 0.22 µM | Mean Diameter of Inhibition Zone against MDRB [19]: 18 ± 0.5 mm | Mean Diameter of Inhibition Zone against MDRB (S. aureus ATCC 33591 [20]): 21 ± 0.23 mm | Mean Diameter of Inhibition Zone against MDRB (E. coli ATCC BAA-196 [21]): 16 ± 0.11 mm | Mean Diameter of Inhibition Zone against MDRB [22]: 25 ± 0.99 mm | MBC (E. coli ATCC BAA-196 [23]): 31.2 µg/mL (≈ 59.1 µM) | MIC (E. coli ATCC BAA-196 [23]): 15.6 µg/mL (≈ 29.5 µM) | MBC [24]: 11.9 µg/mL (≈ 22.4 µM) | MIC [24]: 6.25 µg/mL (≈ 11.8 µM) | MBC (S. aureus ATCC 33591 [25]): 7.41 µg/mL (≈ 14 µM) | MIC (S. aureus ATCC 33591 [25]): 3.9 µg/mL (≈ 7.37 µM) | MBC [26]: 31.2 µg/mL (≈ 59.1 µM) | MIC [26]: 15.6 µg/mL (≈ 29.5 µM)

CCn1cc(C(=O)O)c(=O)c2cc(F)c(N3CCNCC3)cc21 [Norfloxacin, reference compound]
Mean Diameter of Inhibition Zone against MDRB [19]: 25 ± 0.50 mm | Mean Diameter of Inhibition Zone against MDRB (S. aureus ATCC 33591 [20]): 26 ± 0.5 mm | Mean Diameter of Inhibition Zone against MDRB (E. coli ATCC BAA-196 [21]): 27 ± 0.98 mm | Mean Diameter of Inhibition Zone against MDRB [22]: 24 ± 0.47 mm | MBC (E. coli ATCC BAA-196 [23]; E. coli ATCC BAA-196, read-out: MBC): 3.53 µg/mL (≈ 11.1 µM) | MIC (E. coli ATCC BAA-196 [23]; E. coli ATCC BAA-196, read-out: MIC): 1.57 µg/mL (≈ 4.92 µM) | MBC ([24]; P. aeruginosa ATCC BAA-2111, read-out: MBC): 4.69 µg/mL (≈ 14.7 µM) | MIC ([24]; P. aeruginosa ATCC BAA-2111, read-out: MIC): 3.13 µg/mL (≈ 9.8 µM) | MBC (S. aureus ATCC 33591 [25]; S. aureus ATCC 33591, read-out: MBC): 1.56 µg/mL (≈ 4.89 µM) | MIC (S. aureus ATCC 33591 [25]; S. aureus ATCC 33591, read-out: MIC): 0.78 µg/mL (≈ 2.44 µM) | MBC ([26]; S. aureus ATCC 43300, read-out: MBC): 2.81 µg/mL (≈ 8.8 µM) | MIC ([26]; S. aureus ATCC 43300, read-out: MIC): 1.25 µg/mL (≈ 3.91 µM)
